What follows are molecules tested against T1, MAGL (recombinant wild-type) (Homo sapiens, UniProt Q99685) (assay: 4-NPA assay: MAGL inhibitory activity by hydrolysis of 4-nitrophenylacetate, absorbance at 405 nm). Settings: 4-NPA assay (values without footnote [b]).
T1 sequence (Q99685 1-303): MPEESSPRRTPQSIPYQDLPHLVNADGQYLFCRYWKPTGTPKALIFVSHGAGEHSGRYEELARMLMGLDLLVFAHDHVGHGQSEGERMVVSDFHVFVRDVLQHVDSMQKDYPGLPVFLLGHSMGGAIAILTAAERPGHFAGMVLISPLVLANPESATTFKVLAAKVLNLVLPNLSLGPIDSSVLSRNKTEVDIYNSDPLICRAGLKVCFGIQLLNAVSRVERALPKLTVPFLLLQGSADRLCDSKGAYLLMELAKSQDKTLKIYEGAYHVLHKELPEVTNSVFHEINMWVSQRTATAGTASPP
Format: biochemical
Outline: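 Final assay: 1 nM MAGL and 300 μM 4-nitrophenylacetate in 50 mM Tris, 1 mM EDTA, at RT. Compounds (25 μM–1.7 nM, 3-fold steps) were preincubated 15 min with enzyme. A405 was read 5 min after substrate addition and again after 80 min; activity was taken as the difference between reads.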

Row | SMILES | IC50
1 | CC(C)(C)c1nc(-c2ccc(C(=O)N3CCN(c4nc5nc(C6CC6)ccc5o4)CC3)cc2)no1 [Example 189, (4-(5-(tert-butyl)-1,2,4-oxadiazol-3-yl)phenyl)(4-(5-cyclopropyloxazolo[4,5-b]pyridin-2-yl)piperazin-1-yl)methanone] | 2490 nM
2 | CC1(COc2ncc(C(=O)N3CCN(c4nc5nc(Cl)ccc5o4)CC3)cc2F)CC1 [Example 145, (4-(5-chlorooxazolo[4,5-b]pyridin-2-yl)piperazin-1-yl)(5-fluoro-6-((1-methylcyclopropyl)methoxy)pyridin-3-yl)methanone] | 216 nM
3 | Cc1ccc2oc(N3CCN(C(=O)c4ccc5nc(C6CC6)oc5c4)CC3)nc2n1 [Example 22, (2-cyclopropyl-1,3-benzoxazol-6-yl)-[4-(5-methyloxazolo[4,5-b]pyridin-2-yl)piperazin-1-yl]methanone] | 1250 nM
4 | CC(C)(C)Cn1ncc(-c2ccc(C(=O)N3CCN(c4nc5nc(Cl)ccc5o4)CC3)cc2)n1 [Example 44, [4-(5-chlorooxazolo[4,5-b]pyridin-2-yl)piperazin-1-yl]-[4-[2-(2,2-dimethylpropyl)triazol-4-yl]phenyl]methanone] | 3 nM
5 | CC1CN(C(=O)c2ccc(-c3noc(C(C)(C)C)n3)cc2)CCN1c1nc2nc(Cl)ccc2o1 (stereo not shown) [Example 46, [4-(5-tert-butyl-1,2,4-oxadiazol-3-yl)phenyl]-[4-(5-chlorooxazolo[4,5-b]pyridin-2-yl)-3-methyl-piperazin-1-yl]methanone] | 28 nM
6 | Cc1ccc2oc(N3CCN(C(=O)c4ccc(OCC5(C)CC5)c(F)c4)CC3)nc2n1 [Example 71, [3-fluoro-4-[(1-methylcyclopropyl)methoxy]phenyl]-[4-(5-methyloxazolo[4,5-b]pyridin-2-yl)piperazin-1-yl]methanone] | 382 nM
7 | Cc1ccc2oc(N3CCN(C(=O)c4cc(Cl)cc(N5CC6(CC(O)C6)C5)c4)CC3)nc2n1 [Example 179, [3-chloro-5-(6-hydroxy-2-azaspiro[3.3]heptan-2-yl)phenyl]-[4-(5-methyl-[1,3]oxazolo[4,5-b]pyridin-2-yl)piperazin-1-yl]methanone] | 3940 nM
8 | Cc1ccc2oc(N3CCN(C(=O)c4ccc(-c5noc(CC(C)(C)C)n5)cc4)CC3)nc2n1 [Example 5, (4-(5-methyloxazolo[4,5-b]pyridin-2-yl)piperazin-1-yl)(4-(5-neopentyl-1,2,4-oxadiazol-3-yl)phenyl)methanone] | 9 nM

Further molecules by falling IC50, results first:

Row | IC50 | SMILES
9 | 4000 nM | Cc1ccc2oc(N3CCN(C(=O)c4cnc(N5CC(OC(C)C(F)(F)F)C5)cc4C)CC3)nc2n1 (stereo not shown) [Example 220, (4-methyl-6-(3-((1,1,1-trifluoropropan-2-yl)oxy)azetidin-1-yl)pyridin-3-yl)(4-(5-methyloxazolo[4,5-b]pyridin-2-yl)piperazin-1-yl)methanone]
10 | 1540 nM | Cc1ccc2oc(N3CCN(C(=O)c4ccc(N5CC(OC(C)C(F)(F)F)C5)nn4)CC3)nc2n1 (stereo not shown) [Example 218, (4-(5-methyloxazolo[4,5-b]pyridin-2-yl)piperazin-1-yl)(6-(3-((1,1,1-trifluoropropan-2-yl)oxy)azetidin-1-yl)pyridazin-3-yl)methanone]
11 | 65 nM | CC(F)(F)Cc1nc(-c2ccc(C(=O)N3CCN(c4nc5nc(Cl)ccc5o4)CC3)cc2)no1 [Example 262, [4-(5-chlorooxazolo[4,5-b]pyridin-2-yl)piperazin-1-yl]-[4-[5-(2,2-difluoropropyl)-1,2,4-oxadiazol-3-yl]phenyl]methanone]
12 | 62 nM | Cc1ccc2oc(N3CCN(C(=O)c4cnc(N5CCC6(C5)CC6(F)F)c(Cl)c4)CC3)nc2n1 (stereo not shown) [Example 227, (5-chloro-6-(1,1-difluoro-5-azaspiro[2.4]heptan-5-yl)pyridin-3-yl)(4-(5-methyloxazolo[4,5-b]pyridin-2-yl)piperazin-1-yl)methanone]
13 | 16 nM | CC(OC1CN(c2ccc(C(=O)N3CCN(c4nc5nc(Cl)ccc5o4)CC3)cc2)C1)C(F)(F)F (stereo not shown) [Example 208, (4-(5-chlorooxazolo[4,5-b]pyridin-2-yl)piperazin-1-yl)(4-(3-((1,1,1-trifluoropropan-2-yl)oxy)azetidin-1-yl)phenyl)methanone]

From US20220135591A1, “HETEROCYCLIC COMPOUNDS AS INHIBITORS OF MONOACYLGLYCEROL LIPASE (MAGL)” (Hoffmann-La Roche Inc., priority 2019, published 2022)
